Molecules are shown by their SMILES.

The target in one assay is T1, human TRPV4 (Homo sapiens, UniProt Q9HBA0).
T1 construct: expressed in transfected cells; host or cells: BHK/AC9 cells transduced with BacMam virus
T1 sequence (Q9HBA0 whole entry): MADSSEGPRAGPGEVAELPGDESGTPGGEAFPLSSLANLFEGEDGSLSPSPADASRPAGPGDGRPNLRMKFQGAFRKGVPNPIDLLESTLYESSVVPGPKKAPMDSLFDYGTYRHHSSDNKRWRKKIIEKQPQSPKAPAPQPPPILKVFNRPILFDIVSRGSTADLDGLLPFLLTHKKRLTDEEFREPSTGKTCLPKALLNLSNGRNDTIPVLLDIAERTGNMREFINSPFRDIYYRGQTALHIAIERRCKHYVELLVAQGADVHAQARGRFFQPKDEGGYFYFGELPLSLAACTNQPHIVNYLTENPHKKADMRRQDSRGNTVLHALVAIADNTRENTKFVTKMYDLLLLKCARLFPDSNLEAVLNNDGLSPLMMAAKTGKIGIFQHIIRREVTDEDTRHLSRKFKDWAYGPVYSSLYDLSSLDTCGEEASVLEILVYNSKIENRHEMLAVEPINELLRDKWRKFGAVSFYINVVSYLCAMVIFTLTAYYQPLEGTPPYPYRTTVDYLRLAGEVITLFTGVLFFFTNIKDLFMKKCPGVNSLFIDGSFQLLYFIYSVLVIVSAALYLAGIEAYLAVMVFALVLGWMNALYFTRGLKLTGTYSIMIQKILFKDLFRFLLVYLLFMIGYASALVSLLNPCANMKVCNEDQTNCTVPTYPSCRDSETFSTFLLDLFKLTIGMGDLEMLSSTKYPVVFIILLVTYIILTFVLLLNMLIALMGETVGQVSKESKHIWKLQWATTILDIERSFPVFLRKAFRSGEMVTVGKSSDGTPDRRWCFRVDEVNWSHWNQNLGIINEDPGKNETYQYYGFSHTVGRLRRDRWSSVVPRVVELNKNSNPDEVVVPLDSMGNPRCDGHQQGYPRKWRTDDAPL
Put plainly: FLIPR assay for hTRPV4 expressed in BHK cells: inhibition of Agonist Compound-induced calcium signal. The format is cell-based.
Conditions: not given
Put shortly: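 BHK/AC9 cells transduced with BacMam human TRPV4 (MOI 78), plated 15,000 per well and cultured 24 h at 37° C. Loaded with 2 μM Fluo-4 AM plus 500 μM Brilliant Black in HBSS for 1-1.5 h at room temperature in the dark; intracellular calcium signal read by FLIPR fluorescence.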
Regarding `C[C@@H](O)[C@]1(O)CN(S(=O)(=O)c2ccc(Cl)cn2)C[C@@H]1Oc1ccc(C#N)c(F)c1` [Example 195], the IC50 (in general, the point on the concentration scale where inhibition reaches its midpoint) is 0.1 to 10 nM.

The assay is the same for the next values; noted with them: hTRPV4 FLIPR assay; average in at least one set of experimental runs; read-out: average IC50.
In the case of `C[C@H](O)[C@@]1(O)CN(S(=O)(=O)c2ccc(C(F)(F)F)cc2C#N)C[C@@H]1Oc1ccc(C#N)c(F)c1` [Example 194, 4-(((3S,4S)-1-((2-cyano-4-(trifluoromethyl)phenyl)sulfonyl)-4-hydroxy-4-((S)-1-hydroxyethyl)pyrrolidin-3-yl)oxy)-2-fluorobenzonitrile], the IC50 amounted to 40 nM.

Staying with this assay, now noted: hTRPV4 in BHK/AC9 cells, FLIPR calcium signal, agonist at EC80; reported as range class; read-out: IC50.
As for `CC(C)C[C@H](O)[C@]1(O)CN(S(=O)(=O)c2ccc(Cl)cn2)C[C@@H]1Oc1ccc(C#N)c(F)c1` [Example 192, 4-(((3S,4R)-1-((5-chloropyridin-2-yl)sulfonyl)-4-hydroxy-4-((S)-1-hydroxy-3-methylbutyl)pyrrolidin-3-yl)oxy)-2-fluorobenzonitrile], the IC50 was 10 to 100 nM.
`C[C@@H](O)[C@]1(O)CN(S(=O)(=O)c2ccc(C(F)(F)F)cc2C#N)C[C@@H]1Oc1ccc(C#N)c(F)c1` [Example 193, 4-(((3S,4R)-1-((2-cyano-4-(trifluoromethyl)phenyl)sulfonyl)-4-hydroxy-4-((R)-1-hydroxyethyl)pyrrolidin-3-yl)oxy)-2-fluorobenzonitrile]: the IC50 was 0.1 to 10 nM.
The same measure, in the same setting: next, `C[C@H](O)[C@@]1(O)CN(S(=O)(=O)c2ccc(C(F)(F)F)cc2C#N)C[C@@H]1Oc1ccc(C#N)c(F)c1` [Example 194, 4-(((3S,4S)-1-((2-cyano-4-(trifluoromethyl)phenyl)sulfonyl)-4-hydroxy-4-((S)-1-hydroxyethyl)pyrrolidin-3-yl)oxy)-2-fluorobenzonitrile]: 10 to 100 nM; `CC[C@@H](O)[C@]1(O)CN(S(=O)(=O)c2ccc(Cl)cn2)C[C@@H]1Oc1ccc(C#N)c(F)c1` [Example 196, 4-(((3S,4R)-1-((5-chloropyridin-2-yl)sulfonyl)-4-hydroxy-4-((R)-1-hydroxypropyl)pyrrolidin-3-yl)oxy)-2-fluorobenzonitrile]: 0.1 to 10 nM; `CC(C)C[C@@H](O)[C@]1(O)CN(S(=O)(=O)c2ccc(Cl)cn2)C[C@@H]1Oc1ccc(C#N)c(F)c1` [Example 197, 4-(((3S,4R)-1-((5-chloropyridin-2-yl)sulfonyl)-4-hydroxy-4-((R)-1-hydroxy-3-methylbutyl)pyrrolidin-3-yl)oxy)-2-fluorobenzonitrile]: 0.1 to 10 nM.
Same read-out and setting: for `CCC[C@@H](O)[C@]1(O)CN(S(=O)(=O)c2ccc(Cl)cn2)C[C@@H]1Oc1ccc(C#N)c(F)c1` [Example 198, 4-(((3S,4R)-1-((5-chloropyridin-2-yl)sulfonyl)-4-hydroxy-4-((R)-1-hydroxybutyl)pyrrolidin-3-yl)oxy)-2-fluorobenzonitrile] the value was 0.1 to 10 nM; for `COc1ccc(S(=O)(=O)N2C[C@H](Oc3ccc(C#N)c(F)c3)[C@](O)([C@H](C)O)C2)c(C#N)c1` [Example 199, 4-(((3S,4R)-1-((2-cyano-4-methoxyphenyl)sulfonyl)-4-hydroxy-4-((S)-1-hydroxyethyl)pyrrolidin-3-yl)oxy)-2-fluorobenzonitrile], 10 to 100 nM.
On the same count and under the same terms, for `C[C@H](O)[C@]1(O)CN(S(=O)(=O)c2ccccc2C#N)C[C@@H]1Oc1ccc(C#N)c(F)c1` [Example 200, 4-(((3S,4R)-1-((2-cyanophenyl)sulfonyl)-4-hydroxy-4-((S)-1-hydroxyethyl)pyrrolidin-3-yl)oxy)-2-fluorobenzonitrile] the value was 10 to 100 nM; for `C[C@H](O)[C@]1(O)CN(S(=O)(=O)c2ccc(F)cc2C#N)C[C@@H]1Oc1ccc(C#N)c(F)c1` [Example 201, 4-(((3S,4R)-1-((2-cyano-4-fluorophenyl)sulfonyl)-4-hydroxy-4-((S)-1-hydroxyethyl)pyrrolidin-3-yl)oxy)-2-fluorobenzonitrile], 0.1 to 10 nM.
As for `C[C@H](O)[C@]1(O)CN(S(=O)(=O)c2ccc(Cl)cc2C#N)C[C@@H]1Oc1ccc(C#N)c(F)c1` [Example 202, 4-(((3S,4R)-1-((4-chloro-2-cyanophenyl)sulfonyl)-4-hydroxy-4-((S)-1-hydroxyethyl)pyrrolidin-3-yl)oxy)-2-fluorobenzonitrile], the 50% inhibitory concentration (IC50) is 0.1 to 10 nM.
Consider `C[C@H](O)[C@]1(O)CN(S(=O)(=O)c2cccnc2C#N)C[C@@H]1Oc1ccc(C#N)c(F)c1` [Example 203, 3-(((3R,4S)-4-(4-cyano-3-fluorophenoxy)-3-hydroxy-3-((S)-1-hydroxyethyl)pyrrolidin-1-yl)sulfonyl) picolinonitrile], for which the IC50 lay within 10 to 100 nM.
`C[C@H](O)[C@]1(O)CN(S(=O)(=O)c2ccc(Cl)cc2Cl)C[C@@H]1Oc1ccc(C#N)c(F)c1` [Example 204, 4-(((3S,4R)-1-((2,4-dichlorophenyl)sulfonyl)-4-hydroxy-4-((S)-1-hydroxyethyl)pyrrolidin-3-yl)oxy)-2-fluorobenzonitrile]: the half-maximal inhibitory concentration (IC50) was in the range of 0.1 to 10 nM.
On the same count and under the same terms, for `C[C@H](O)[C@]1(O)CN(S(=O)(=O)c2ccc(C#N)cc2Cl)C[C@@H]1Oc1ccc(C#N)c(F)c1` [Example 205, 4-(((3S,4R)-1-((2-chloro-4-cyanophenyl)sulfonyl)-4-hydroxy-4-((S)-1-hydroxyethyl)pyrrolidin-3-yl)oxy)-2-fluorobenzonitrile] the value was 0.1 to 10 nM.
As to `C[C@@H](O)[C@]1(O)CN(S(=O)(=O)c2ccc(C(F)(F)F)nc2)C[C@@H]1Oc1ccc(C#N)c(F)c1` [Example 206, 2-fluoro-4-(((3S,4R)-4-hydroxy-4-((R)-1-hydroxyethyl)-1-((6-(trifluoromethyl)pyridin-3-yl)sulfonyl)pyrrolidin-3-yl)oxy)benzonitrile], the IC50 lay in the range of 10 to 100 nM.
Same read-out and setting: for `C[C@@H](O)[C@]1(O)CN(S(=O)(=O)c2ccc(F)cn2)C[C@@H]1Oc1ccc(C#N)c(F)c1` [Example 207, 2-fluoro-4-(((3S,4R)-1-((5-fluoropyridin-2-yl)sulfonyl)-4-hydroxy-4-((R)-1-hydroxyethyl)pyrrolidin-3-yl)oxy)benzonitrile] the value was 10 to 100 nM; for `C[C@@H](O)[C@]1(O)CN(S(=O)(=O)c2ccc(OC(F)(F)F)nc2)C[C@@H]1Oc1ccc(C#N)c(F)c1` [Example 208, 2-fluoro-4-(((3S,4R)-4-hydroxy-4-((R)-1-hydroxyethyl)-1-((6-(trifluoromethoxy)pyridin-3-yl)sulfonyl)pyrrolidin-3-yl)oxy)benzonitrile], 10 to 100 nM.
Still for that read-out and setting: for `C[C@@H](O)[C@]1(O)CN(S(=O)(=O)c2ccc(I)cc2)C[C@@H]1Oc1ccc(C#N)c(F)c1` [Example 209, 2-fluoro-4-(((3S,4R)-4-hydroxy-4-((R)-1-hydroxyethyl)-1-((4-iodophenyl)sulfonyl)pyrrolidin-3-yl)oxy)benzonitrile] the value was 0.1 to 10 nM; for `C[C@@H](O)[C@]1(O)CN(S(=O)(=O)c2ccc(OC(F)(F)F)cn2)C[C@@H]1Oc1ccc(C#N)c(F)c1` [Example 210, 2-fluoro-4-(((3S,4R)-4-hydroxy-4-((R)-1-hydroxyethyl)-1-((5-(trifluoromethoxy)pyridin-2-yl)sulfonyl)pyrrolidin-3-yl)oxy)benzonitrile], 10 to 100 nM.
With `C[C@@H](O)[C@]1(O)CN(S(=O)(=O)c2ccc(C(F)F)cn2)C[C@@H]1Oc1ccc(C#N)c(F)c1` [Example 211, 4-(((3S,4R)-1-((5-(difluoromethyl)pyridin-2-yl)sulfonyl)-4-hydroxy-4-((R)-1-hydroxyethyl)pyrrolidin-3-yl)oxy)-2-fluorobenzonitrile], the IC50 is 10 to 100 nM.
Still for that read-out and setting: next, `C[C@@H](O)[C@]1(O)CN(S(=O)(=O)c2ccc(C(F)F)nc2)C[C@@H]1Oc1ccc(C#N)c(F)c1` [Example 212, 4-(((3S,4R)-1-((6-(difluoromethyl)pyridin-3-yl)sulfonyl)-4-hydroxy-4-((R)-1-hydroxyethyl)pyrrolidin-3-yl)oxy)-2-fluorobenzonitrile]: 10 to 100 nM; `C[C@@H](O)[C@]1(O)CN(S(=O)(=O)c2ccc(OC(F)F)nc2)C[C@@H]1Oc1ccc(C#N)c(F)c1` [Example 213, 4-(((3S,4R)-1-((6-(difluoromethoxy)pyridin-3-yl)sulfonyl)-4-hydroxy-4-((R)-1-hydroxyethyl)pyrrolidin-3-yl)oxy)-2-fluorobenzonitrile]: 10 to 100 nM.
Still for that read-out and setting: next, `CC(C)(O)[C@]1(O)CN(S(=O)(=O)c2ccc(Cl)cn2)C[C@@H]1Oc1ccc(C#N)c(F)c1` [Example 214, 4-(((3S,4S)-1-((5-chloropyridin-2-yl)sulfonyl)-4-hydroxy-4-(2-hydroxypropan-2-yl)pyrrolidin-3-yl)oxy)-2-fluorobenzonitrile]: 10 to 100 nM.
On the same count and under the same terms, for `N#Cc1cc(OCC(F)(F)F)c(O[C@H]2CN(S(=O)(=O)c3ccc(Cl)cn3)C[C@]2(O)CO)cc1F` [Example 215, 4-(((3S,4S)-1-((5-chloropyridin-2-yl)sulfonyl)-4-hydroxy-4-(hydroxymethyl)pyrrolidin-3-yl)oxy)-2-fluoro-5-(2,2,2-trifluoroethoxy)benzonitrile] the value was 10 to 100 nM; for `Cc1ccc(S(=O)(=O)N2C[C@H](Oc3ccc(C#N)c(F)c3)[C@](O)(CO)C2)c(C#N)c1` [Example 216, 4-(((3S,4R)-1-((2-cyano-4-methylphenyl)sulfonyl)-4-hydroxy-4-(hydroxymethyl)pyrrolidin-3-yl)oxy)-2-fluorobenzonitrile], 0.1 to 10 nM; for `CCc1ccc(S(=O)(=O)N2C[C@H](Oc3ccc(C#N)c(F)c3)[C@](O)(CO)C2)c(C#N)c1` [Example 217, 4-(((3S,4R)-1-((2-cyano-4-ethylphenyl)sulfonyl)-4-hydroxy-4-(hydroxymethyl)pyrrolidin-3-yl)oxy)-2-fluorobenzonitrile], 0.1 to 10 nM.
`N#Cc1ccc(O[C@H]2CN(S(=O)(=O)c3ccc(-c4ccccc4)cc3C#N)C[C@@]2(O)CO)cc1F` [Example 218, 4-(((3R,4S)-4-(4-cyano-3-fluorophenoxy)-3-hydroxy-3-(hydroxymethyl)pyrrolidin-1-yl)sulfonyl)-[1,1′-biphenyl]-3-carbonitrile]: the 50% inhibitory concentration (IC50) was 10 to 100 nM.
Still for that read-out and setting: for `CC#Cc1ccc(S(=O)(=O)N2C[C@H](Oc3ccc(C#N)c(F)c3)[C@](O)(CO)C2)c(C#N)c1` [Example 219, 4-(((3S,4R)-1-((2-cyano-4-(prop-1-yn-1-yl)phenyl)sulfonyl)-4-hydroxy-4-(hydroxymethyl)pyrrolidin-3-yl)oxy)-2-fluorobenzonitrile] the value was 0.1 to 10 nM.
